The target in assay [1] is T1, EptA (Neisseria gonorrhoeae, UniProt B4RMY8).
T1 construct: gene NGK_1498; full-length membrane protein, purified in DDM
The assay is described as follows: TLC of fluorescent lipid. In kind it is biochemical. To be noted: pH 7.5, 25°C, ~24 h, 0.2 mM substrate, 40 μM enzyme, 0.03% DDM.

For assay [2], the target named is T2, ICR-Mo (AXE82_07515) (Faucicola osloensis, UniProt A0A378QCY4).
T2 construct: gene eptA; full-length synthetic gene in pET21a, membrane protein, Ni-NTA purified in DDM, ~60 kDa
The experiment in a line: TLC of fluorescent lipid, LC/MS. To be noted: pH 7.5, 25°C, ~24 h, 0.2 mM substrate, 40 μM enzyme, 0.03% DDM. In kind it is biochemical.

Molecules are shown by their SMILES.

T2 sequence (A0A378QCY4 entry or part of it): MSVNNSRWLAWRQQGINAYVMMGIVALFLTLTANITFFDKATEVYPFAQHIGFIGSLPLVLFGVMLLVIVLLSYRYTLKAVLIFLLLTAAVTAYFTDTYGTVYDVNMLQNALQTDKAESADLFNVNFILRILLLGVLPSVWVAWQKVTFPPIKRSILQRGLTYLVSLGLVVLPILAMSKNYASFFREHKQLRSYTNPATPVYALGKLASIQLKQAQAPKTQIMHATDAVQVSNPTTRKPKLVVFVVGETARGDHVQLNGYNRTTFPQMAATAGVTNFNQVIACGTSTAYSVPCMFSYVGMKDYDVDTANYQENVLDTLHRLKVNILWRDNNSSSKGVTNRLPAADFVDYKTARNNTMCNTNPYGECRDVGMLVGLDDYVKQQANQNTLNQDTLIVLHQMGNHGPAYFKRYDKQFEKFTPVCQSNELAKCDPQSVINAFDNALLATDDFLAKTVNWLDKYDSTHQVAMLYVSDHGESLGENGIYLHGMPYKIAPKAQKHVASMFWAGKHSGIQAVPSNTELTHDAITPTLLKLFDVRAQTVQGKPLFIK
T1 sequence (B4RMY8 entry or part of it): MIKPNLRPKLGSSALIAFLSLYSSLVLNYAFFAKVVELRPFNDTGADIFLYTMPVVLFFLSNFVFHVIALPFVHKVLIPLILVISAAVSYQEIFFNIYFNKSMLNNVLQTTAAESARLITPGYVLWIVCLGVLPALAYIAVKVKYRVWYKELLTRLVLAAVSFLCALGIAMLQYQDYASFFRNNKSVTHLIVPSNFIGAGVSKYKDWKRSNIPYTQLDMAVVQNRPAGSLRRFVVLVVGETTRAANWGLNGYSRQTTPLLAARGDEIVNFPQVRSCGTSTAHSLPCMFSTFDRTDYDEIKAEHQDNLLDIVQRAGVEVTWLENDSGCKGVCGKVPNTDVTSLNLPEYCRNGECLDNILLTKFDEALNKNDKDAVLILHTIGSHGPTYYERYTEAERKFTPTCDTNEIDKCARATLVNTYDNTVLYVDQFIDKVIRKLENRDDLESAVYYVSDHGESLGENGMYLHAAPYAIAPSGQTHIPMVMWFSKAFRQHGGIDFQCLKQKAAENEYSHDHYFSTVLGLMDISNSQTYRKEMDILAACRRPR

As to `CCCCCCCCCCCCCCCC(=O)OC[C@H](COP(=O)(O)OCCN)OC(=O)CCCCCCCCCCCNc1ccc([N+](=O)[O-])c2nonc12` [NBD-glycerol-3-PEA, 1-acyl-2-{12-[(7-nitro-2-1,3-benzoxadiazol-4-yl)amino]dodecanoyl}-sn-glycero-3-phosphoethanolamine], in assay [1], the “TLC of fluorescent lipid” value is listed as “Minus denotes no addition of the enzyme of EptA/MCR-1/MCR-2/ICR-Mo”. In addition, the “TLC of fluorescent lipid, LC/MS” value in assay [2] is reported as “ICR-Mo displays an enzymatic activity of removing the PEA moiety from the lipid substrate”.

For the origin of these results see article PMC5983563, “Defining ICR-Mo, an intrinsic colistin resistance determinant from Moraxella osloensis” (PLoS Genetics, 2018).
